Measured values from patent US20090087425A1, “Combination of nitroderivatized steroid and bronchodilator for treating respiratory disease” (Topigen Pharmaceuticals Inc., priority 2007, published 2009).
“And” between values parts separate entries of the source, which are not always exact repeats. Identical values can stand only once. “Also recorded” adds a separate entry of the source. Like-named read-outs stand apart in the source and are kept apart here.

Legend:
[1] = tested on: bronchoconstriction induced by histamine; assay: Histamine-induced bronchoconstriction in conscious guinea-pigs, whole body plethysmography (sGaw); assay type: in vivo, guinea-pig; conditions: for Duration of significant reduction of AHR after treatment: TPI-1020 0.3 mg/ml, or TPI-1020 0.3 mg/ml + salbutamol 20 μg/ml
[2] = tested on: bronchoconstriction induced by methacholine; assay: Methacholine-induced bronchoconstriction in conscious guinea-pigs, whole body plethysmography (sGaw); assay type: in vivo, guinea-pig
Procedure: Groups of six male Dunkin-Hartley guinea-pigs, weighing 350-450 g were used throughout. Animals received food and water ad libitum and lighting was maintained in the room (22+/−2° C.) on a 12 h cycle. This work complied with the guidelines for the care and use of laboratory animals according to the Animals (Scientific Procedures) Act 1986.
Whole body plethysmography of the conscious guinea-pig was used to monitor airway function, recorded as specific airways conductance (sGaw). The method was as described by Griffiths-Johnson et al. (J. Pharmacol. Meth. 1988; 11:233-240), although a computerized data acquisition system replaced the original oscilloscope and angle resolver (Danahay et al. Clin. Exp. Allergy 1997; 28:513-522). Animals were fitted with a face mask and placed in a restrainer which was then slid into the plethysmograph chamber. The computer ran AcqKnowledge software using a Biopack data acquisition system. This system was capable of acquiring and storing data referring to the air across a pneumotachograph (Mercury FIL) as the animal breathed. The resulting change in box volume (pressure) was simultaneously measured.
Changes in air flow and box pressure were measured using UP1 and UP2 pressure transducers, respectively. The resulting waveforms could then be rapidly analysed by comparing the gradients of the flow and the box pressure waves at a point where flow tended towards zero, i.e. end tidal flow. A function of these two parameters, allowing for air pressure and the weight of the animal, gave the resulting value for specific airway conductance (sGaw). A minimum of five breaths were analysed for each animal at each time point to arrive at a mean value, which is the reported value.
In the experimental examples described herein, the reported values for sGaw measurements were taken following histamine or […] without treatment. This pre-treatment sGaw value measured after histamine or methacholine challenge, by convention, determined 100% bronchoconstriction for the animal. Following treatment with the experimental agents, including agents which are part of the subject invention, sGaw values (level of bronchoconstriction) were reported as a percentage of the pre-treatment value. Thus, a 10% post-treatment sGaw value, as compared to the 100% pre-treatment sGaw, is a 90% reduction in bronchoconstriction, or 90% reduction of airway hyperresponse (AHR). A 20% post-treatment sGaw value corresponds to an 80% reduction in bronchoconstriction or AHR. Thus, the lower the post-treatment sGaw value, the better the reduction of bronchoconstriction and AHR. For purposes of the subject invention, the more desired response is a lower sGaw value (less histamine- or methacholine-induced bronchoconstriction, and less AHR).
All drugs or vehicle were delivered as a whole body exposure chamber. […]
Tiotropium is an antimuscarinic or anticholinergic bronchodilator, different from the beta-agonist bronchodilators, such as salbutamol, described above. Baseline readings were taken on Day 1 prior to treatment (Pre-treatment) to determine 100% bronchoconstriction or AHR induced by methacholine. Recordings of sGaw were made at 0, 5 and 10 minutes after the […] (Post-treatment). The sGaw values of Day 3 are expressed as a percentage of Day 1 sGaw values following methacholine challenge (Pre-treatment), which is by definition set at 100%. Each point represents the mean+/−S.E.M. (n=6). Statistical significance was determined for p<0.05 using Student's paired t-test.
On Day 3, animals were treated with vehicle, alone, or with 1.0, 3.0, or 10.0 ug/ml of tiotropium. […] A dose of 0.1 µg/ml of tiotropium provided less than 40% reduction of AHR.

[3] = tested on: recruitment of inflammatory cells (neutrophils); conditions: cited from earlier work
muscarinic receptors = conditions: cited from earlier work
[4] = asthmatic patients, cited from earlier work
[5] = FIG. 1B, budesonide 0.44 mg/ml, equimolar to 0.63 mg/ml TPI-1020
[6] = FIG. 2B, budesonide 0.44 mg/ml, equimolar to 0.63 mg/ml TPI-1020
[7] = FIG. 2D, TPI-1020 0.11 mMl (0.1 mg/ml in text)
[8] = FIG. 3, TPI-1020 0.3 mg/ml, 30 mins before histamine
[9] = FIG. 3, TPI-1020 0.3 mg/ml, 60 mins before histamine
[10] = FIG. 3, TPI-1020 0.3 mg/ml, 90 mins before histamine
[11] = FIG. 3, salbutamol 30 μg/ml, 30 mins before histamine
[12] = FIG. 3, salbutamol 30 μg/ml, 60 mins before histamine
[13] = FIG. 3, salbutamol 30 μg/ml, 90 mins before histamine

## CCCC1O[C@@H]2C[C@H]3[C@@H]4CCC5=CC(=O)C=C[C@]5(C)[C@H]4[C@@H](O)C[C@]3(C)[C@]2(C(=O)CO)O1 (stereo partly drawn) [Budesonide, budesonide]
[1]; [5]
  % Inhibition: 35%
  Post-treatment (% sGaw): −65.2 % sGaw
[1]; [6]
  % Inhibition: 35%
  Post-treatment (% sGaw): −65.2 % sGaw
[1]; FIG. 2B, budesonide 0.44 mg/ml, equimolar to 0.63 mg/ml TPI-1020, listed as budesonide
  % Inhibition: 40%
[1]; FIG. 2D, budesonide 0.11 mM
  % Inhibition: 18%
  Post-treatment (% sGaw): −81.8 % sGaw

## budesonide 21-(4′-nitrooxymethyl)benzoate [TPI-1020]
[2]; FIG. 5B, TPI-1020 0.1 mg/ml, 30 mins before methacholine
  Post-treatment (% sGaw): −94.0 % sGaw
[2]; FIG. 5B, TPI-1020 0.1 mg/ml, 90 mins before methacholine
  Post-treatment (% sGaw): −86.9 % sGaw
[2]; FIG. 5B, TPI-1020 0.3 mg/ml, 30 mins before methacholine
  Post-treatment (% sGaw): −18.4 % sGaw
[2]; FIG. 5B, TPI-1020 0.3 mg/ml, 90 mins before methacholine
  Post-treatment (% sGaw): −65.3 % sGaw
[2]; FIG. 5C, TPI-1020 0.1 mg/ml
  Post-treatment (% sGaw): −86.9 % sGaw
[3]; pre-clinical studies
  Release in the lung of key mediators of inflammation: significantly reduce release in the lung of key mediators of inflammation
[3]; rodent models of airway inflammation and pulmonary disease
  Recruitment of inflammatory cells (neutrophils): significantly block the recruitment of inflammatory cells (neutrophils)
[1]; FIG. 1A, TPI-1020 0.1 mg/ml inhaled 15 min before 3 mM histamine
  % Inhibition: 20% and 21%
[1]; FIG. 1A, TPI-1020 0.3 mg/ml
  % Inhibition: 48%
[1]; FIG. 1A, TPI-1020 0.63 mg/ml
  % Inhibition: 95%
[1]; FIG. 2A, TPI-1020 0.1 mg/ml
  Post-treatment (% sGaw): −83.2 % sGaw
[1]; FIG. 2A, TPI-1020 0.3 mg/ml
  % Inhibition: 48% and 50%
  Post-treatment (% sGaw): −49.5 % sGaw
[1]; FIG. 2A, TPI-1020 0.63 mg/ml
  % Inhibition: 80% and 72%
  Post-treatment (% sGaw): −27.9 % sGaw
[1]; [7]
  % Inhibition: insignificant reduction of AHR
  Post-treatment (% sGaw): −83.2 % sGaw
[1]; [8]
  % Inhibition: 50%
  Post-treatment (% sGaw): −49.5 % sGaw
[1]; [9]
  % Inhibition: 7%
  Post-treatment (% sGaw): −92.7 % sGaw
[1]; [10]
  % Inhibition: −20%
  Post-treatment (% sGaw): −120.1 % sGaw
[1]; FIG. 3, salbutamol 30 μg/ml
  Duration of significant reduction of AHR after treatment: 30 min
[1]; FIG. 4B, TPI-1020 0.1 mg/ml
  % Inhibition: 17%
  Post-treatment (% sGaw): −83.2 % sGaw
[1]; FIG. 4B, TPI-1020 0.3 mg/ml
  % Inhibition: −20%
  Post-treatment (% sGaw): −120.3 % sGaw

## CC(C)(C)NCC(O)c1ccc(O)c(CO)c1 (stereo not drawn) [Salbutamol, salbutamol]
[1]; FIG. 1C, salbutamol 3 μg/ml
  % Inhibition: 12%
  Post-treatment (% sGaw): −87.6 % sGaw
[1]; FIG. 1C, salbutamol 3 μg/ml, listed as salbutamol
  % Inhibition: no significant inhibition effect
[1]; FIG. 1C, salbutamol 10 μg/ml
  % Inhibition: 3%
  Post-treatment (% sGaw): −96.7 % sGaw
[1]; FIG. 1C, salbutamol 10 μg/ml, listed as salbutamol
  % Inhibition: no significant inhibition effect
[1]; FIG. 1C, salbutamol 20 μg/ml
  % Inhibition: 20%
  Post-treatment (% sGaw): −80.1 % sGaw
[1]; FIG. 1C, salbutamol 30 μg/ml
  % Inhibition: 84%
  Post-treatment (% sGaw): −15.6 % sGaw
[1]; FIG. 1C, salbutamol 30 μg/ml, listed as salbutamol
  % Inhibition: 85%
[1]; FIG. 2D, salbutamol 20 μg/ml
  % Inhibition: 11%
  Post-treatment (% sGaw): −89.0 % sGaw
[1]; FIG. 2D, salbutamol 20 μg/ml, listed as salbutamol
  % Inhibition: insignificant reduction of AHR; also recorded: do not significantly reduce AHR
[1]; [11]
  % Inhibition: 84%
  Post-treatment (% sGaw): −15.6 % sGaw
[1]; [12]
  % Inhibition: 47%
  Post-treatment (% sGaw): −52.7 % sGaw
[1]; [13]
  % Inhibition: 9%
  Post-treatment (% sGaw): −91.4 % sGaw
[1]; FIG. 3, salbutamol 30 μg/ml
  Duration of significant reduction of AHR after treatment: 60 min

## CC(=O)N[C@H](C(=O)O)C(C)(C)SN=O (racemic) [SNAP, S-nitroso-N-acetylpenicillamine]
[1]; FIG. 2C, SNAP 0.15 mg/ml
  % Inhibition: 20% and 19%
  Post-treatment (% sGaw): −81.2 % sGaw
[1]; FIG. 2C, SNAP 0.31 mg/ml
  % Inhibition: 47%
  Post-treatment (% sGaw): −52.6 % sGaw
[1]; FIG. 2D, SNAP 0.7 mM
  % Inhibition: 19%
  Post-treatment (% sGaw): −81.2 % sGaw

## C[N+]1(C)[C@@H]2C[C@@H](OC(=O)C(O)(c3cccs3)c3cccs3)C[C@H]1[C@@H]1O[C@@H]12 [Tiotropium, tiotropium]
[2]; FIG. 5A, tiotropium 1 μg/ml
  % Inhibition: 35%
  Post-treatment (% sGaw): −65.2 % sGaw
[2]; FIG. 5A, tiotropium 3 μg/ml
  % Inhibition: 73%
  Post-treatment (% sGaw): −26.7 % sGaw
[2]; FIG. 5A, tiotropium 3 μg/ml, listed as tiotropium
  % Inhibition: about 75%
[2]; FIG. 5A, tiotropium 10 μg/ml
  % Inhibition: ~85%
  Post-treatment (% sGaw): −14.9 % sGaw
[2]; FIG. 5C, tiotropium 1 μg/ml
  % Inhibition: 35%
  Post-treatment (% sGaw): −65.2 % sGaw
Muscarinic receptors
  Selectivity for specific muscarinic receptors: does not display selectivity for specific muscarinic receptors

## COc1ccc(CC(C)NCC(O)c2ccc(O)c(NC=O)c2)cc1 (stereo not drawn) [Formoterol, formoterol]
[4]; dose 6 μg
  Duration of bronchodilation: 8 h
[4]; dose 12 μg
  Duration of bronchodilation: 10 h
[4]; dose 24 μg
  Duration of bronchodilation: 12 h
